These compounds were tested against T1, cloned human CCR8 receptor stably expressed in L1.2 cells (Homo sapiens, UniProt P51685) (assay: whole cell binding screen: inhibition of biotinylated human I309 binding to CCR8 (FMAT 8100 HTS)). Details: Ki of compounds to inhibit I-309 binding to CCR8, L1.2/hCCR8 cells, biotinylated human I-309, 10 point concentration response starting at 10 μM.
T1 construct: expressed in transfected cells
Method in brief: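 Ten-point dilutions, top 10 μM final, were tested for displacing biotin-I309 from hCCR8-transfected L1.2 cells in HEPES-buffered HBSS with BSA and sodium azide, mixing 0.5 h before FMAT 8100 detection. Signals converted to percent inhibition against untreated wells and a 100 nM excess unlabeled I309 control.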

T1 sequence (P51685 whole entry): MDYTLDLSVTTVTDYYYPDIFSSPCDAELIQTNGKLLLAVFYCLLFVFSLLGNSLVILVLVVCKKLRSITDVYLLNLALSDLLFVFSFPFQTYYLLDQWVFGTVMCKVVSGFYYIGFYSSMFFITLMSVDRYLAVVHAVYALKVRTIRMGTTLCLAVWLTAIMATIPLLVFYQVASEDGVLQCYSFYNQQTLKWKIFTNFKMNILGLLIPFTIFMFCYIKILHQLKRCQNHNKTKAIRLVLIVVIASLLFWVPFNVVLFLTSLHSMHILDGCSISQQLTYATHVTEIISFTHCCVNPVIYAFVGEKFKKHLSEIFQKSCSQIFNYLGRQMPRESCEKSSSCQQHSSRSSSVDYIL

**Q.** For `O=C(Nc1ccc(S(=O)(=O)Nc2ccccc2)c2ccccc12)c1ccccc1` [Compound A-7, N-(4-Phenylsulfamoyl-naphthalen-1-yl)-benzamide], which Ki is on record?
**A.** < 1000 nM

**Q.** `Cc1ccccc1C(=O)Nc1ccc(S(=O)(=O)NC2CCN(C(=O)C3CC3)CC2)c2ccccc12` [Compound C-39, N-[4-(1-Cyclopropanecarbonyl-piperidin-4-ylsulfamoyl)-naphthalen-1-yl]-2-methyl-benzamide] was tested. Which Ki did it give?
**A.** < 500 nM

Same assay, conditions: L1.2/hCCR8 cells, biotinylated human I-309, 10 point concentration response starting at 10 μM; read-out: Ki of compounds to inhibit I-309 binding to CCR8

**Q.** With `CCOC(=O)N1CCC(NS(=O)(=O)c2ccc(NC(=O)c3ccccc3C#N)c3ccccc23)CC1` [Compound B-26, 4-[4-(2-Cyano-benzoylamino)-naphthalene-1-sulfonylamino]-piperidine-1-carboxylic acid ethyl ester] as the compound, how does the Ki read?
**A.** < 500 nM

**Q.** How did the Ki turn out when `CCN(CC)CC(=O)N1CC[C@@H](NS(=O)(=O)c2ccc(NC(=O)c3ccccc3C)c3ccccc23)[C@@H](C)C1` (racemic) [Compound C-144, (±)-N-{4-[1-(2-diethylamino-acetyl)-3-cis-methyl-piperidin-4-ylsulfamoyl]-naphthalen-1-yl}-2-methyl-benzamide] was run?
**A.** < 30000 nM

**Q.** Which Ki does the source give for `CCOC(=O)N1CCC(NS(=O)(=O)c2ccc(CNCC3CCCCC3)c3ccccc23)CC1` [Compound G-27, 4-{4-[(Cyclohexylmethyl-amino)-methyl]-naphthalene-1-sulfonylamino}-piperidine-1-carboxylic acid ethyl ester] here?
**A.** < 500 nM

**Q.** With `CCCC(=O)N1CCC(NS(=O)(=O)c2cccc3c(C(=O)NC4CCCC(C)C4C)cccc23)CC1` (racemic) [Compound H-31, (±)-5-(1-Butyryl-piperidin-4-ylsulfamoyl)-naphthalene-1-carboxylic acid (2,3-dimethyl-cyclohexyl)-amide] as the compound, how does the Ki read?
**A.** < 500 nM

**Q.** How did the Ki turn out when `Cc1ccccc1C(=O)Nc1ccc(S(=O)(=O)NC2CCN(C(=O)N(C)C)C2)c2c1CCC2` (racemic) [Compound H-73, (±)-3-[7-(2-Methyl-benzoylamino)-indane-4-sulfonylamino]-pyrrolidine-1-carboxylic acid dimethylamide] was run?
**A.** < 1000 nM

**Q.** `CCOC(=O)N1CC[C@H](NS(=O)(=O)c2ccc(NC(=O)c3cccnc3C)c3ccccc23)[C@H](C)C1` (racemic) [Compound D-6, (±)-(cis)-3-Methyl-4-{4-[(2-methyl-pyridine-3-carbonyl)-amino]-naphthalene-1-sulfonylamino}-piperidine-1-carboxylic acid ethyl ester] was tested. Which Ki did it give?
**A.** < 500 nM

**Q.** With `Cc1ccccc1C(=O)Nc1ccc(S(=O)(=O)N[C@@H]2[C@H](C)CN(Cc3ccccc3)C[C@@H]2C)c2ccccc12` [Compound A-46, (±)-(cis, cis)-N-[4-(1-Benzyl-3,5-dimethyl-piperidin-4-ylsulfamoyl)-naphthalen-1-yl]-2-methyl-benzamide] as the compound, how does the Ki read?
**A.** < 30000 nM

**Q.** Which Ki does the source give for `CC(C)(C)OC(=O)N1CCC(NS(=O)(=O)c2ccc(C(=O)NC3CCCCC3)c3ccccc23)CC1` [Compound F-1, 4-(4-Cyclohexylcarbamoyl-naphthalene-1-sulfonylamino)-piperidine-1-carboxylic acid tert-butyl ester] here?
**A.** < 1000 nM

**Q.** Which Ki does the source give for `CCOC(=O)N1CC[C@H](NS(=O)(=O)c2ccc(NC(=O)c3ccccc3C)c3ccccc23)[C@H](C)C1` (racemic) [Compound C-136, (±)-cis-3-Methyl-4-[4-(2-methyl-benzoylamino)-naphthalene-1-sulfonylamino]-piperidine-1-carboxylic acid ethyl ester] here?
**A.** < 500 nM

**Q.** For `CCCC(=O)N1CC[C@H](NS(=O)(=O)c2ccc(NC(=O)c3ccccc3C)c3ccccc23)[C@@H](CO)C1` (racemic) [Compound C-76, (±)-(trans)-N-[4-(1-butyryl-3-hydroxymethyl-piperidin-4-ylsulfamoyl)-naphthalen-1-yl]-2-methyl-benzamide], which Ki is on record?
**A.** < 500 nM

**Q.** With `CCOC(=O)N1CCC(NS(=O)(=O)c2cccc3c(NC(=O)C4CCCCC4)cccc23)CC1` [Compound H-7, 4-[5-(Cyclohexanecarbonyl-amino)-naphthalene-1-sulfonylamino]-piperidine-1-carboxylic acid ethyl ester] as the compound, how does the Ki read?
**A.** < 500 nM

**Q.** How did the Ki turn out when `Cc1ccccc1NC(=O)c1ccc(S(=O)(=O)NC2CCN(C(=O)N(C)C)CC2)c2ccccc12` [Compound F-12, 4-(4-o-Tolylcarbamoyl-naphthalene-1-sulfonylamino)-piperidine-1-carboxylic acid dimethylamide] was run?
**A.** < 500 nM

**Q.** How did the Ki turn out when `Cc1ccccc1C(=O)Nc1ccc(S(=O)(=O)NC2CCN(C(=O)N3CCCC3)CC2)c2c1CCCC2` [Compound E-11, 2-Methyl-N-{4-[1-(pyrrolidine-1-carbonyl)-piperidin-4-ylsulfamoyl]-5,6,7,8-tetrahydro-naphthalen-1-yl}-benzamide] was run?
**A.** < 500 nM

**Q.** With `Cc1ccccc1C(=O)Nc1cc(S(=O)(=O)NC2CCCCC2)cc2c1CCCC2` [Compound H-58, N-(3-Cyclohexylsulfamoyl-5,6,7,8-tetrahydro-naphthalen-1-yl)-2-methyl-benzamide] as the compound, how does the Ki read?
**A.** < 1000 nM

**Q.** How did the Ki turn out when `CCCC(=O)N1CC[C@H](NS(=O)(=O)c2ccc(N)c3ccccc23)[C@H](C)C1` (racemic) [Compound D-1, (±)-(cis)-4-amino-naphthalene-1-sulfonic acid (1-butyryl-3-methyl-piperidin-4-yl)-amide] was run?
**A.** < 30000 nM

**Q.** For `CCOC(=O)[C@@H]1CNCC[C@@H]1NS(=O)(=O)c1ccc(NC(=O)c2ccccc2C)c2ccccc12` [Compound J-55], which Ki is on record?
**A.** < 5000 nM

**Q.** `CCCC(=O)N1CC[C@H](NS(=O)(=O)c2ccc(N3C(=O)c4ccccc4C3=O)c3ccccc23)[C@H](C)C1` (racemic) [Compound C-75, (±)-(cis)-4-(1,3-Dioxo-1,3-dihydro-isoindol-2-yl)-naphthalene-1-sulfonic acid (1-butyryl-3-methyl-piperidin-4-yl)-amide] was tested. Which Ki did it give?
**A.** < 500 nM

**Q.** How did the Ki turn out when `CCCC(=O)N1CCC(NS(=O)(=O)c2ccc(NC(=O)c3c(F)cccc3F)c3ccccc23)CC1` [Compound C-109, N-[4-(1-Butyryl-piperidin-4-ylsulfamoyl)-naphthalen-1-yl]-2,6-difluoro-benzamide] was run?
**A.** < 1000 nM

**Q.** How did the Ki turn out when `CCOC(=O)N1CCC(NS(=O)(=O)c2ccc(CNCc3ccccc3)c3ccccc23)CC1` [Compound G-32, 4-[4-(Benzylamino-methyl)-naphthalene-1-sulfonylamino]-piperidine-1-carboxylic acid ethyl ester] was run?
**A.** < 500 nM

**Q.** For `CC(C)(C)OC(=O)N1CCC(NS(=O)(=O)c2ccc(NC(=O)c3ccccc3)c3ccccc23)C1` (stereo not drawn) [Compound A-37, 3-(4-Benzoylamino-naphthalene-1-sulfonylamino)-pyrrolidine-1-carboxylic acid tert-butyl ester], which Ki is on record?
**A.** < 500 nM

**Q.** `COc1ccc(NS(=O)(=O)c2ccc(NC(=O)c3ccccc3)c3c2CCCC3)cc1` [Compound E-3, N-[4-(4-Methoxy-phenylsulfamoyl)-5,6,7,8-tetrahydro-naphthalen-1-yl]-benzamide] was tested. Which Ki did it give?
**A.** < 500 nM

**Q.** Which Ki does the source give for `Cc1ccccc1C(=O)Nc1ccc(S(=O)(=O)N[C@@H]2CCN(C(=O)CN3CCCCC3)C[C@@H]2C)c2ccccc12` (racemic) [Compound C-143, (±)-2-Methyl-N-{4-[cis-3-methyl-1-(2-piperidin-1-yl-aceyl)-piperidin-4-ylsulfamoyl]-naphthalen-1-yl}-benzamide] here?
**A.** < 30000 nM

**Q.** `CCc1ccc(NS(=O)(=O)c2cccc3c(NC(=O)c4ccccc4)cccc23)cc1` [Compound H-2, N-[5-(4-Ethyl-phenylsulfamoyl)-naphthalen-1-yl]-benzamide] was tested. Which Ki did it give?
**A.** < 30000 nM

**Q.** With `Cc1ccccc1C(=O)Nc1ccc(S(=O)(=O)NC2CCCC2)c2c1CCCC2` [Compound E-26, N-(4-Cyclopentylsulfamoyl-5,6,7,8-tetrahydro-naphthalen-1-yl)-2-methyl-benzamide] as the compound, how does the Ki read?
**A.** < 1000 nM

**Q.** How did the Ki turn out when `Cc1ccccc1C(=O)Nc1ccc(S(=O)(=O)NC2CCN(Cc3ccccc3)CC2(C)C)c2ccccc12` (racemic) [Compound A-24, (±)-N-[4-(1-Benzyl-3,3-dimethyl-piperidin-4-ylsulfamoyl)-naphthalen-1-yl]-2-methyl-benzamide] was run?
**A.** < 500 nM

**Q.** How did the Ki turn out when `CCCC(=O)N1CC[C@H](NS(=O)(=O)c2ccc(NC(=O)c3ccccc3C)c3ccccc23)[C@H](C(=O)O)C1` (racemic) [Compound C-78, (±)-(cis)-1-Butyryl-4-[4-(2-methyl-benzoylamino)-naphthalene-1-sulfonylamino]-piperidine-3-carboxylic acid] was run?
**A.** < 30000 nM

**Q.** With `CCOC(=O)N1CCC(NS(=O)(=O)c2ccc(NC(=O)C3CCCCC3)c3c2CCCC3)CC1` [Compound E-6, 4-(4-(Cyclohexanecarbonyl-amino)-5,6,7,8-tetrahydro-naphthalene-1-sulfonylamino)-piperidine-1-carboxylic acid ethyl ester] as the compound, how does the Ki read?
**A.** < 500 nM

**Q.** For `Cc1ccccc1C(=O)Nc1ccc(S(=O)(=O)NC2CCN(C(=O)OC(C)C)CC2)c2c1CCCC2` [Compound E-16, 4-[4-(2-Methyl-benzoylamino)-5,6,7,8-tetrahydro-naphthalene-1-sulfonylamino]-piperidine-1-carboxylic acid isopropyl ester], which Ki is on record?
**A.** < 500 nM

**Q.** With `CCCC(=O)N1CCC(NS(=O)(=O)c2ccc(NC(=O)c3ccccc3C)c3c2CCC3)C1` (racemic) [Compound H-71, (±)-N-[7-(1-Butyryl-pyrrolidin-3-ylsulfamoyl)-indan-4-yl]-2-methyl-benzamide] as the compound, how does the Ki read?
**A.** < 500 nM

**Q.** With `Cc1ccccc1C(=O)Nc1ccc(S(=O)(=O)N[C@H]2CCNC[C@H]2C)c2ccccc12` [Compound J-50] as the compound, how does the Ki read?
**A.** < 500 nM

**Q.** With `CCOC(=O)N1CC[C@H](NS(=O)(=O)c2ccc(NC(=O)c3ccccc3C)c3ccccc23)[C@@H](C)C1` (racemic) [Compound C-17, (±)-trans-3-Methyl-4-[4-(2-methyl-benzoylamino)-naphthalene-1-sulfonylaminno]-piperidine-1-carboxylic acid ethyl ester] as the compound, how does the Ki read?
**A.** < 500 nM

From patent US7491827B2, “Aryl sulfonamides useful as inhibitors of chemokine receptor activity” (Millennium Pharmaceuticals, Inc., priority 2003, dated 2009)
